Measured values taken from publication PMC9800739, “Epigenetic drugs in somatostatin type 2 receptor radionuclide theranostics and radiation transcriptomics in mouse pheochromocytoma models” (Theranostics, 2023).
Entries after “also recorded” stand apart in the source; their conditions may differ. Where two headings read alike, the source gives them in different places.

Legend:
SSTR2 [1] = biological target: T1, SSTR2 (Mus musculus, UniProt P30875); experiment: [68Ga]Ga-DOTA-TATE radioligand uptake in cells; type: cell-based; settings: MPC cells; 37 °C; VPA 10^-3 mol/L; DAC 5×10^-7 mol/L; attributed to cytotoxic effects
T1 construct: endogenous in cells; host or cells: MPC and MTT mouse pheochromocytoma cells (cell homogenates), untreated or treated with VPA + DAC
T1 sequence (P30875 whole entry): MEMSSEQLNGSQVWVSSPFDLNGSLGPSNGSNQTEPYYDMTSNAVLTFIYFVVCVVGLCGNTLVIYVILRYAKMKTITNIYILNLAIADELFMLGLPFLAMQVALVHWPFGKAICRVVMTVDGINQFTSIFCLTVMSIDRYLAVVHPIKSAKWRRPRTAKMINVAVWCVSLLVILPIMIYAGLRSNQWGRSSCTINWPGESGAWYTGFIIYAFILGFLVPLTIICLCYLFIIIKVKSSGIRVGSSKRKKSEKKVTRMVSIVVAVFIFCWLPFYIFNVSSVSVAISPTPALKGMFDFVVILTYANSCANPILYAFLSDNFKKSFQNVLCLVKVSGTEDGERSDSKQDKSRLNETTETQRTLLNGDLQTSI
Method: Cells were seeded into collagen-coated microplates or collagen-coated flasks 24 h before epigenetic treatment (ET) start and treated twice (24 h interval) with VPA and DAC, as single and combination doses, respectively. Treatment effects were investigated two to six days (d) after final ET. Preparation of epigenetic drugs is reported in Supplemental Information 1.1.
Radionuclide production and supply are described in Supplemental Information 1.2.
Cells were seeded into collagen-coated 24-well microplates (2.5×10^4/cm^2) and uptake of [^68Ga]Ga-DOTA-TATE was measured three and seven days after ET start. Cells were incubated with fresh cell culture medium containing 0.8 MBq/mL [^68Ga]Ga-DOTA-TATE (Am = 10 MBq/nmol), equivalent to 80 nmol/L, for 60 min at 4 °C or 37 °C. Cells were washed and lysed, and activity of cell lysates was measured as described previously. Total protein in cell lysates was measured using the Qubit protein assay (Thermo Fisher Scientific). Uptake of [^68Ga]Ga-DOTA-TATE was reported as % initial dose per mg of protein.

SSTR2 [2] = settings: cited from earlier work; for SSTR2 expression (effect): BON-1 cells, monotherapies and combined application; for SSTR2 gene expression (effect): QGP-1 cells
From the text: HDAC and DNMT inhibitors can have different impacts depending on the cellular background. For example, in QGP-1 cells, DAC induced, but VPA inhibited SSTR2 gene expression.

MPC tumors [3] = type: in vivo, mouse; settings: MPC
Method: During anesthesia, animals were continuously warmed at 37°C. […] Animals were sacrificed using CO2 inhalation and cervical dislocation.
107 (30%), muscle (0%), kidneys (25%), and liver (35%).
116 attenuation. Images were post-processed and analyzed using ROVER (ABX). Three-
118 kidneys (15%), and liver (25%). […]

MPC tumors [4] = experiment: Tumor growth of MPC allografts; type: in vivo, mouse; settings: PET cohorts; for Vtumor, ET start: day 0 baseline, mean ± SEM; for Vtumor, ET start + 4 d: day 4, mean ± SEM
Method: During anesthesia, animals were continuously warmed at 37°C. […] Animals were sacrificed using CO2 inhalation and cervical dislocation. […]
70 1.1 Preparation of epigenetic drugs
71 For in vitro application, VPA was freshly dissolved in cell culture medium and added to the
72 cells at final concentrations between 10‒5 and 10‒2 mol/L. DAC was dissolved in H2O to obtain
73 a 10‒4 mol/L stock solution that was stored at ‒20 °C. For each experiment, aliquots of the DAC
74 stock were thawed and added to the cells at final concentrations between 10‒8 and 10‒5 mol/L.
75 For in vivo application, VPA was dissolved at 0.26 mol/L in Dulbecco’s phosphate-buffered
76 saline. DAC was dissolved at 0.04 mol/L in acetic acid (9.6 mol/L) to obtain a stock solution
77 that was further diluted to 6.6×10‒4 mol/L in Dulbecco’s phosphate buffered. […]
88 1.3 Tumor volumes in animal cohorts
89 Animals with higher initial tumor volume were specifically included in cohorts that received
90 epigenetic drugs in order to compensate for the growth-reducing effects of ET and to match
91 tumor volumes as closely as possible across cohorts at the time of radiopharmaceutical injection

[5] = [64Cu]Cu-DOTA-TATE, 40‒60 min p.i., day 1 after final ET, control or VPA 250 mg/kg, DAC 1 mg/kg days −3 and 0, mean ± SEM

| Structure (SMILES) | [68Ga]Ga-DOTA-TATE uptake (effect) (SSTR2 [1]) | SSTR2 expression (effect) (SSTR2 [2]) | SSTR2 gene expression (effect) (SSTR2 [2]) | SUVmean tumor (MPC tumors [3]; [5]) | SUVmax ratio tumor / muscle (MPC tumors [3]; animal 1, 40‒60 min p.i.) | SUVmax tumor (MPC tumors [3]; animal 1, 40‒60 min p.i.) | SUVmean ratio tumor / muscle (MPC tumors [3]; animal 1, 40‒60 min p.i.) | SUVmean tumor (MPC tumors [3]; animal 1, 40‒60 min p.i.) | SUVmax ratio tumor / muscle (MPC tumors [3]; animal 2, 40‒60 min p.i.) | SUVmax tumor (MPC tumors [3]; animal 2, 40‒60 min p.i.) | SUVmean ratio tumor / muscle (MPC tumors [3]; animal 2, 40‒60 min p.i.) | SUVmean tumor (MPC tumors [3]; animal 2, 40‒60 min p.i.) | SUVmax ratio tumor / muscle (MPC tumors [3]; animal 3, 40‒60 min p.i.) | SUVmax tumor (MPC tumors [3]; animal 3, 40‒60 min p.i.) | SUVmean ratio tumor / muscle (MPC tumors [3]; animal 3, 40‒60 min p.i.) | SUVmean tumor (MPC tumors [3]; animal 3, 40‒60 min p.i.) | SUVmax ratio tumor / muscle (MPC tumors [3]; animal 4, 40‒60 min p.i.) | SUVmax tumor (MPC tumors [3]; animal 4, 40‒60 min p.i.) | SUVmean ratio tumor / muscle (MPC tumors [3]; animal 4, 40‒60 min p.i.) | SUVmean tumor (MPC tumors [3]; animal 4, 40‒60 min p.i.) | other results |
| --- | --- | --- | --- | --- | --- | --- | --- | --- | --- | --- | --- | --- | --- | --- | --- | --- | --- | --- | --- | --- | --- |
| Nc1ncn([C@H]2C[C@H](O)[C@@H](CO)O2)c(=O)n1 [DAC, 5-Aza-2'-deoxycytidine] | impairment of [68Ga]Ga-DOTA-TATE uptake; also recorded: reduced radiotracer uptake at 37 °C | increased | induced | 7.38 ± 0.74 | 57.8 | 11.5 | 68.2 | 5.09 | 65.6 | 13.9 | 96.7 | 6.74 | 58.7 | 15.3 | 93.2 | 7.52 | 69.1 | 15.2 | 80.6 | 7.99 | SUVmax ratio tumor / muscle (MPC tumors [3]; animal 5, 40‒60 min p.i.): 67.9; SUVmax tumor (MPC tumors [3]; animal 5, 40‒60 min p.i.): 20.6; SUVmean ratio tumor / muscle (MPC tumors [3]; animal 5, 40‒60 min p.i.): 104; SUVmean tumor (MPC tumors [3]; animal 5, 40‒60 min p.i.): 9.57; SUVmax ratio tumor / muscle (MPC tumors [3]; as SUVmean, mean ± SEM): 63.8 ± 2.35; SUVmax tumor (MPC tumors [3]; as SUVmean, mean ± SEM): 15.3 ± 1.49; SUVmean ratio tumor / muscle (MPC tumors [3]; as SUVmean, mean ± SEM): 88.6 ± 6.39; Vtumor, ET start (MPC tumors [4]): 0.39 ± 0.16 cm3; Vtumor, ET start + 4 d (MPC tumors [4]): 0.57 ± 0.18 cm3 |
| CCCC(CCC)C(=O)O [VPA, valproic acid] | impairment of [68Ga]Ga-DOTA-TATE uptake; also recorded: reduced radiotracer uptake at 37 °C | increased | inhibited | 6.91 ± 1.19 | 33.0 | 8.80 | 60.0 | 4.22 | 60.8 | 10.8 | 67.2 | 5.61 | 78.3 | 19.7 | 91.2 | 8.55 | 65.2 | 18.5 | 100 | 9.24 | stimulating effects on SSTR2 expression and [111In]In-DOTA-TATE uptake, reversibility (SSTR2 [2]; one day after VPA withdrawal): largely reversible one day after VPA withdrawal; SUVmax ratio tumor / muscle (MPC tumors [3]; as SUVmean, mean ± SEM): 59.3 ± 9.54; SUVmax tumor (MPC tumors [3]; as SUVmean, mean ± SEM): 14.5 ± 2.73; SUVmean ratio tumor / muscle (MPC tumors [3]; as SUVmean, mean ± SEM): 79.6 ± 9.53; Vtumor, ET start (MPC tumors [4]): 0.27 ± 0.13 cm3; Vtumor, ET start + 4 d (MPC tumors [4]): 0.46 ± 0.23 cm3 |
